Where two headings read alike, the source gives them in different places.
Legend:
WAGA cells (VP-MCC) = experiment: qHTS cell viability (CellTiter-Glo, 72 h; primary and follow-up small molecule screen); assay type: cell-based, human
HACAT cells = experiment: qHTS cell viability (CellTiter-Glo, 72 h; primary screen), control cell line; assay type: cell-based, human
[1] = system: control cell lines (HACAT, HEK293T, CRL-7250, NIH-3T3); experiment: qHTS cell viability, control cell lines as a group (mean AUC, Control.avg); assay type: cell-based
[2] = system: MCC cell lines (WAGA, MKL-1, MKL-2, MCC13, MCC26, UISO); experiment: qHTS cell viability, all six MCC cell lines as a group (mean AUC, MCC.avg); assay type: cell-based, human
MCC13 cells (VN-MCC) = experiment: qHTS cell viability (CellTiter-Glo, 72 h; primary and follow-up small molecule screen); assay type: cell-based, human
MCC26 cells (VN-MCC) = experiment: as above; assay type: cell-based, human
[3] = system: six MCC cell lines and four control cell lines; experiment: qHTS cell viability, all 10 cell lines screened; assay type: cell-based
MKL-1 cells (VP-MCC) = experiment: qHTS cell viability (CellTiter-Glo, 72 h; primary and follow-up small molecule screen); assay type: cell-based, human
NIH-3T3 cells = experiment: qHTS cell viability (CellTiter-Glo, 72 h; primary screen), control cell line; assay type: cell-based, mouse
[4] = system: VP-MCC cell lines (WAGA, MKL-1, MKL-2); experiment: qHTS cell viability, VP-MCC cell lines as a group (mean AUC, VP.MCC.avg); assay type: cell-based, human
HEK293T cells = experiment: qHTS cell viability (CellTiter-Glo, 72 h; primary screen), control cell line; assay type: cell-based, human
UISO cells (VN-MCC) = experiment: qHTS cell viability (CellTiter-Glo, 72 h; primary and follow-up small molecule screen); assay type: cell-based, human
MKL-2 cells (VP-MCC) = experiment: as above; assay type: cell-based, human
[5] = system: VN-MCC cell lines (MCC13, MCC26, UISO); experiment: qHTS cell viability, VN-MCC cell lines as a group (mean AUC, VN.MCC.avg); assay type: cell-based, human
CRL-7250 cells = experiment: qHTS cell viability (CellTiter-Glo, 72 h; primary screen), control cell line; assay type: cell-based
[6] = MIPE library, 11-point DRC, sheet S2E
[7] = MIPE library, 11-point DRC, control cell line, sheet S2E

SMILES: C=CCC1([C@H](C)CCC)C(=O)NC(=O)NC1=O [S-(-)-Secobarbital]
- WAGA_AUC (WAGA cells (VP-MCC)): 434.137
- HACAT_AUC (HACAT cells): 491.817
- Control_Avg_AUC [1]: 485.883
- MCC_Avg_AUC [2]: 436.213
- MCC13_AUC (MCC13 cells (VN-MCC)): 460.136
- MCC26_AUC (MCC26 cells (VN-MCC)): 414.278
- Control-MCC [3]: 49.6701
- MKL1_AUC (MKL-1 cells (VP-MCC)): 441.594
- NIH3T3_AUC (NIH-3T3 cells): 473.981
- Control-VP-MCC [4]: 50.9524
- VP-MCC_Avg_AUC [4]: 434.931
- HEK293T_AUC (HEK293T cells): 485.529
- UISO_AUC (UISO cells (VN-MCC)): 438.072
- MKL2_AUC (MKL-2 cells (VP-MCC)): 429.062
- Control-VN-MCC [5]: 48.3879
- VN-MCC_Avg_AUC [5]: 437.495
- CRL7250_AUC (CRL-7250 cells): 492.207

SMILES: Cc1c(C)n(Cc2ccc(-c3ccccc3C(=O)O)cc2)c2ccc(C(=O)N[C@@H](C)c3ccc([N+](=O)[O-])cc3)cc12 [SR1664]
- WAGA_AUC (WAGA cells (VP-MCC); [6]): 329.214
- WAGA_AUC (WAGA cells (VP-MCC); area under the dose-response curve, WAGA cells, AUC<450 = reduced viability): 329.214
- HACAT_AUC (HACAT cells; [7]): 479.075
- HACAT_AUC (HACAT cells; area under the dose-response curve, HACAT control cells, AUC<450 = reduced viability): 479.075
- Control_Avg_AUC ([1]; MIPE library, mean AUC of control cell lines, sheet S2E): 477.269
- MCC_Avg_AUC ([2]; MIPE library, mean AUC of six MCC cell lines, sheet S2E): 394.468
- MCC13_AUC (MCC13 cells (VN-MCC); [6]): 475.759
- MCC13_AUC (MCC13 cells (VN-MCC); area under the dose-response curve, MCC13 cells, AUC<450 = reduced viability): 475.759
- MCC26_AUC (MCC26 cells (VN-MCC); [6]): 470.066
- MCC26_AUC (MCC26 cells (VN-MCC); area under the dose-response curve, MCC26 cells; AUC<450 = reduced viability): 470.066
- Control-MCC ([3]; MIPE library, Control AUC minus MCC AUC (therapeutic window), sheet S2E): 82.8007
- MKL1_AUC (MKL-1 cells (VP-MCC); [6]): 300.491
- MKL1_AUC (MKL-1 cells (VP-MCC); area under the dose-response curve, MKL-1 cells, AUC<450 = reduced viability): 300.491
- NIH3T3_AUC (NIH-3T3 cells; [7]): 484.086
- NIH3T3_AUC (NIH-3T3 cells; area under the dose-response curve, NIH3T3 control cells, AUC<450 = reduced viability): 484.086
- Control-VP-MCC ([4]; MIPE library, Control AUC minus VP-MCC AUC (therapeutic window), sheet S2E): 161.027
- VP-MCC_Avg_AUC ([4]; MIPE library, mean AUC of VP-MCC cell lines, sheet S2E): 316.242
- HEK293T_AUC (HEK293T cells; [7]): 470.145
- HEK293T_AUC (HEK293T cells; area under the dose-response curve, HEK293T control cells, AUC<450 = reduced viability): 470.145
- UISO_AUC (UISO cells (VN-MCC); [6]): 472.261
- UISO_AUC (UISO cells (VN-MCC); area under the dose-response curve, UISO cells, AUC<450 = reduced viability): 472.261
- MKL2_AUC (MKL-2 cells (VP-MCC); [6]): 319.019
- MKL2_AUC (MKL-2 cells (VP-MCC); area under the dose-response curve, MKL-2 cells, AUC<450 = reduced viability): 319.019
- Control-VN-MCC ([5]; MIPE library, Control AUC minus VN-MCC AUC (therapeutic window), sheet S2E): 4.574
- VN-MCC_Avg_AUC ([5]; MIPE library, mean AUC of VN-MCC cell lines, sheet S2E): 472.695
- CRL7250_AUC (CRL-7250 cells; [7]): 475.771
- CRL7250_AUC (CRL-7250 cells; area under the dose-response curve, CRL7250 control cells, AUC<450 = reduced viability): 475.77

SMILES: CCCCCC(=O)O[C@]1(C(C)=O)CC[C@H]2[C@@H]3CCC4=CC(=O)CC[C@]4(C)[C@H]3CC[C@@]21C [Hydroxyprogesterone caproate]
- WAGA_AUC (WAGA cells (VP-MCC); NPC library, qHTS dose-response AUC, WAGA): 360.251
- HACAT_AUC (HACAT cells; NPC library, qHTS dose-response AUC, HACAT control): 471.336
- Control_Avg_AUC ([1]; NPC library, mean AUC of control cell lines): 456.027
- MCC_Avg_AUC ([2]; NPC library, mean AUC of all 6 MCC cell lines): 381.038
- MCC_Avg_AUC ([2]; NPC library, mean AUC of six MCC cell lines): 381.038
- MCC13_AUC (MCC13 cells (VN-MCC); NPC library, qHTS dose-response AUC, MCC13): 442.155
- MCC26_AUC (MCC26 cells (VN-MCC); NPC library, qHTS dose-response AUC, MCC26): 432.584
- MCC26_AUC (MCC26 cells (VN-MCC); NPC library; qHTS dose-response AUC, MCC26): 432.583
- Control-MCC ([3]; NPC library, therapeutic window: Control avg AUC minus MCC avg AUC): 74.9886
- MKL1_AUC (MKL-1 cells (VP-MCC); NPC library, qHTS dose-response AUC, MKL1): 343.375
- NIH3T3_AUC (NIH-3T3 cells; NPC library, qHTS dose-response AUC, NIH3T3 control): 480.983
- Control-VP-MCC ([4]; Control AUC minus VP-MCC AUC): 125.408
- VP-MCC_Avg_AUC ([4]; NPC library, mean AUC of VP-MCC cell lines): 330.619
- Control-VP-MCC ([4]; NPC library, therapeutic window: Control avg AUC minus VP-MCC avg AUC): 125.408
- HEK293T_AUC (HEK293T cells; NPC library, qHTS dose-response AUC, HEK293T control): 404.302
- UISO_AUC (UISO cells (VN-MCC); NPC library, qHTS dose-response AUC, UISO): 419.635
- MKL2_AUC (MKL-2 cells (VP-MCC); NPC library, qHTS dose-response AUC, MKL2): 288.23
- Control-VN-MCC ([5]; Control AUC minus VN-MCC AUC): 24.569
- VN-MCC_Avg_AUC ([5]; NPC library, mean AUC of VN-MCC cell lines): 431.458
- Control-VN-MCC ([5]; NPC library, therapeutic window: Control avg AUC minus VN-MCC avg AUC): 24.569
- CRL7250_AUC (CRL-7250 cells; NPC library, qHTS dose-response AUC, CRL7250 control): 467.486

— PMC11822212, “High-throughput screening identifies Aurora kinase B as a critical therapeutic target for Merkel cell carcinoma” (Nature Communications, 2025)
